Laboratory results reported in paper PMC12298827, “Subchronic Toxicities of Four Per- and Polyfluoroalkyl Substances (PFASs) by Oral Exposure in Sprague–Dawley Rats” (Toxics, 2025).

Test system: male and female Sprague–Dawley rats
Test: 90-day subchronic oral gavage toxicity study
Assay type: in vivo, rat
Design: key to NOEL, absolute liver weight increase / LOEL, absolute liver weight increase / NOEL, relative kidney weight increase / LOEL, relative kidney weight increase / NOEL, absolute kidney weight increase / LOEL, absolute kidney weight increase / NOEL, relative liver weight increase / LOEL, relative liver weight increase: NR: no response, no statistically significant dose-dependent changes
Method in brief: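 Ten rats per sex per group got corn-oil gavage (3 mL/kg) at five doses or vehicle for 90 days, necropsy on SD 91. Assessed weekly weights and food intake, neurobehavior (FOB, locomotor), eyes, terminal blood panels with plasma PFAS, organ weights and H&E histology; Dunnett's test against control, two-sided 0.05.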

CC(=O)C(F)(F)C(F)(F)C(F)(F)F [MHFPK, Methyl heptafluoropropyl ketone]
Bodyweight (BW) and bodyweight gain (90-day, both sexes, all doses): No changes in BW or BW gain over the course of the study
Clinical observations (90-day, both sexes, all doses): None
Coagulation endpoints (90-day, both sexes, all doses): Males at ≥37.5 mg/kg-day, from minimal to mild dose-dependent prolongations in PT; no effects in females
Feed consumption (90-day, both sexes, all doses): No changes in males; some statistically significant changes in females, not considered as compound related
Functional observational battery (90-day, both sexes, all doses): No changes
Gross lesions (90-day, both sexes, all doses): None considered as MHFPK related
Hematology (90-day, both sexes, all doses): From minimal to mild dose-dependent increases in MPV in both sexes at ≥18.8 mg/kg-day
Histopathology (90-day, both sexes, all doses): None considered as MHFPK related
Locomotor activity (90-day, both sexes, all doses): No effects
Morbidity and mortality (90-day, both sexes, all doses): None
Ophthalmology (90-day, both sexes, all doses): No ocular lesions
Organ weight changes (90-day, both sexes, all doses): None considered as MHFPK related
LOEL, absolute kidney weight increase (female): NR
LOEL, absolute liver weight increase (female): NR
LOEL, relative kidney weight increase (female): NR
LOEL, relative liver weight increase (female): NR
NOEL, absolute kidney weight increase (female): NR
NOEL, absolute liver weight increase (female): NR
NOEL, relative kidney weight increase (female): NR
NOEL, relative liver weight increase (female): NR
% BW Gain (female, 18.8 mg/kg-day): 47.40%
% Diff, % BW Gain (female, 18.8 mg/kg-day): 25.52%
% Diff, Total BW change (female, 18.8 mg/kg-day): 27.05%
% Diff, Total Food Consumed (female, 18.8 mg/kg-day): 11.67%
A/G (female, 18.8 mg/kg-day): 1.12±0.13 ratio
ABEOS (female, 18.8 mg/kg-day): 0.108±0.037 K/µL
ABNEUT (female, 18.8 mg/kg-day): 1.004±0.296 K/µL
ABRETi (female, 18.8 mg/kg-day): 195.85±38.05 10^9/L
ALB (female, 18.8 mg/kg-day): 4.26 ± 0.27 g/dL
ALPi (female, 18.8 mg/kg-day): 69.1±55.5 U/L
APTT (female, 18.8 mg/kg-day): 16.80 s
BUN (female, 18.8 mg/kg-day): 15.5 ± 2.2 mg/dL
CHOL (female, 18.8 mg/kg-day): 100.6 ± 17.0 mg/dL
GLOB (female, 18.8 mg/kg-day): 3.82 ± 0.36 g/dL
GLUC (female, 18.8 mg/kg-day): 158.0 ± 18.9 mg/dL
HCT (female, 18.8 mg/kg-day): 46.27±2.37%
HGB (female, 18.8 mg/kg-day): 14.58 ± 0.67 g/dL
Kidney Weight (female, 18.8 mg/kg-day): 1.94 g
Kidney/Body Weight (female, 18.8 mg/kg-day): 0.56%
Kidney/Brain Weight (female, 18.8 mg/kg-day): 96.5%
Liver Weight (female, 18.8 mg/kg-day): 8.74 g
Liver/Body Weight (female, 18.8 mg/kg-day): 2.51%
Liver/Brain Weight (female, 18.8 mg/kg-day): 435%
MPV (female, 18.8 mg/kg-day): 8.22 ± 0.82 fL
PT (female, 18.8 mg/kg-day): 15.23 s
RBC (female, 18.8 mg/kg-day): 7.887±0.439 M/µL
Total BW change (female, 18.8 mg/kg-day): 115.68 g
Total Food Consumed (female, 18.8 mg/kg-day): 1629 g
% BW Gain (female, 37.5 mg/kg-day): 44.49%
% Diff, % BW Gain (female, 37.5 mg/kg-day): 17.83%
% Diff, Total BW change (female, 37.5 mg/kg-day): 18.53%
% Diff, Total Food Consumed (female, 37.5 mg/kg-day): 1.46%
A/G (female, 37.5 mg/kg-day): 1.05±0.08 ratio
ABEOS (female, 37.5 mg/kg-day): 0.102±0.040 K/µL
ABNEUT (female, 37.5 mg/kg-day): 1.068±0.314 K/µL
ABRETi (female, 37.5 mg/kg-day): 190.80±35.78 10^9/L
ALB (female, 37.5 mg/kg-day): 4.17 ± 0.35 g/dL
ALPi (female, 37.5 mg/kg-day): 56.9±24.3 U/L
APTT (female, 37.5 mg/kg-day): 18.10 s
BUN (female, 37.5 mg/kg-day): 14.7 ± 2.4 mg/dL
CHOL (female, 37.5 mg/kg-day): 106.5 ± 21.4 mg/dL
GLOB (female, 37.5 mg/kg-day): 3.99 ± 0.28 g/dL
GLUC (female, 37.5 mg/kg-day): 161.9 ± 28.0 mg/dL
HCT (female, 37.5 mg/kg-day): 46.13±1.42%
HGB (female, 37.5 mg/kg-day): 14.42 ± 0.61 g/dL
Kidney Weight (female, 37.5 mg/kg-day): 1.84 g
Kidney/Body Weight (female, 37.5 mg/kg-day): 0.55%
Kidney/Brain Weight (female, 37.5 mg/kg-day): 91.4%
Liver Weight (female, 37.5 mg/kg-day): 8.76 g
Liver/Body Weight (female, 37.5 mg/kg-day): 2.58%
Liver/Brain Weight (female, 37.5 mg/kg-day): 433%
MPV (female, 37.5 mg/kg-day): 8.56 ± 0.67 fL
PT (female, 37.5 mg/kg-day): 14.98 s
RBC (female, 37.5 mg/kg-day): 7.864±0.307 M/µL
Total BW change (female, 37.5 mg/kg-day): 107.92 g
Total Food Consumed (female, 37.5 mg/kg-day): 1480 g
% BW Gain (female, 75 mg/kg-day): 39.38%
% Diff, % BW Gain (female, 75 mg/kg-day): 4.28%
% Diff, Total BW change (female, 75 mg/kg-day): 4.15%
% Diff, Total Food Consumed (female, 75 mg/kg-day): 4.34%
A/G (female, 75 mg/kg-day): 1.27±0.60 ratio
ABEOS (female, 75 mg/kg-day): 0.090±0.027 K/µL
ABNEUT (female, 75 mg/kg-day): 1.005±0.441 K/µL
ABRETi (female, 75 mg/kg-day): 193.71±46.37 10^9/L
ALB (female, 75 mg/kg-day): 4.45 ± 0.91 g/dL
ALPi (female, 75 mg/kg-day): 55.0±18.5 U/L
APTT (female, 75 mg/kg-day): 18.68 s
BUN (female, 75 mg/kg-day): 16.5 ± 2.1 mg/dL
CHOL (female, 75 mg/kg-day): 99.1 ± 21.5 mg/dL
GLOB (female, 75 mg/kg-day): 3.85 ± 0.96 g/dL
GLUC (female, 75 mg/kg-day): 159.0 ± 32.6 mg/dL
HCT (female, 75 mg/kg-day): 45.88±1.35%
HGB (female, 75 mg/kg-day): 14.40 ± 0.50 g/dL
Kidney Weight (female, 75 mg/kg-day): 1.91 g
Kidney/Body Weight (female, 75 mg/kg-day): 0.59%
Kidney/Brain Weight (female, 75 mg/kg-day): 96.8%
Liver Weight (female, 75 mg/kg-day): 8.53 g
Liver/Body Weight (female, 75 mg/kg-day): 2.62%
Liver/Brain Weight (female, 75 mg/kg-day): 432%
MPV (female, 75 mg/kg-day): 8.55 ± 0.75 fL
PT (female, 75 mg/kg-day): 14.74 s
RBC (female, 75 mg/kg-day): 7.823±0.340 M/µL
Total BW change (female, 75 mg/kg-day): 94.83 g
Total Food Consumed (female, 75 mg/kg-day): 1522 g
% BW Gain (female, 150 mg/kg-day): 37.70%
% Diff, % BW Gain (female, 150 mg/kg-day): -0.15%
% Diff, Total BW change (female, 150 mg/kg-day): -0.78%
% Diff, Total Food Consumed (female, 150 mg/kg-day): 5.76%
A/G (female, 150 mg/kg-day): 1.14±0.34 ratio
ABEOS (female, 150 mg/kg-day): 0.093±0.035 K/µL
ABNEUT (female, 150 mg/kg-day): 1.175±0.584 K/µL
ABRETi (female, 150 mg/kg-day): 193.46±35.08 10^9/L
ALB (female, 150 mg/kg-day): 4.37 ± 0.51 g/dL
ALPi (female, 150 mg/kg-day): 47.5±8.8 U/L
APTT (female, 150 mg/kg-day): 21.76 s
BUN (female, 150 mg/kg-day): 18.2 ± 2.9 mg/dL
CHOL (female, 150 mg/kg-day): 104.3 ± 20.7 mg/dL
GLOB (female, 150 mg/kg-day): 4.00 ± 0.81 g/dL
GLUC (female, 150 mg/kg-day): 166.7 ± 26.3 mg/dL
HCT (female, 150 mg/kg-day): 45.40±1.55%
HGB (female, 150 mg/kg-day): 14.27 ± 0.54 g/dL
Kidney Weight (female, 150 mg/kg-day): 1.84 g
Kidney/Body Weight (female, 150 mg/kg-day): 0.57%
Kidney/Brain Weight (female, 150 mg/kg-day): 95.8%
Liver Weight (female, 150 mg/kg-day): 8.84 g
Liver/Body Weight (female, 150 mg/kg-day): 2.74%
Liver/Brain Weight (female, 150 mg/kg-day): 462%
MPV (female, 150 mg/kg-day): 8.84 ± 0.70 fL
PT (female, 150 mg/kg-day): 14.99 s
RBC (female, 150 mg/kg-day): 7.731±0.255 M/µL
Total BW change (female, 150 mg/kg-day): 90.34 g
Total Food Consumed (female, 150 mg/kg-day): 1542 g
% BW Gain (female, 300 mg/kg-day): 39.88%
% Diff, % BW Gain (female, 300 mg/kg-day): 5.61%
% Diff, Total BW change (female, 300 mg/kg-day): 5.11%
% Diff, Total Food Consumed (female, 300 mg/kg-day): 7.99%
A/G (female, 300 mg/kg-day): 1.01±0.13 ratio
ABEOS (female, 300 mg/kg-day): 0.085±0.022 K/µL
ABNEUT (female, 300 mg/kg-day): 1.220±0.506 K/µL
ABRETi (female, 300 mg/kg-day): 181.86±36.58 10^9/L
ALB (female, 300 mg/kg-day): 4.15 ± 0.28 g/dL
ALPi (female, 300 mg/kg-day): 54.1±22.2 U/L
APTT (female, 300 mg/kg-day): 22.79 s
BUN (female, 300 mg/kg-day): 17.6 ± 4.5 mg/dL
CHOL (female, 300 mg/kg-day): 107.5 ± 21.4 mg/dL
GLOB (female, 300 mg/kg-day): 4.16 ± 0.64 g/dL
GLUC (female, 300 mg/kg-day): 151.4 ± 28.6 mg/dL
HCT (female, 300 mg/kg-day): 48.02±1.91%
HGB (female, 300 mg/kg-day): 14.98 ± 0.42 g/dL
Kidney Weight (female, 300 mg/kg-day): 1.94 g
Kidney/Body Weight (female, 300 mg/kg-day): 0.59%
Kidney/Brain Weight (female, 300 mg/kg-day): 97.1%
Liver Weight (female, 300 mg/kg-day): 8.59 g
Liver/Body Weight (female, 300 mg/kg-day): 2.63%
Liver/Brain Weight (female, 300 mg/kg-day): 430%
